Reference: patent US11912645B2, “Lipopeptide compounds for the treatment of pain disorders” (INSERM (Institut National de la Santé et de la Recherche …, priority 2017, dated 2024)

Columns and labels:
Caco-2 cells = test: CXCL8 secretion by Caco-2 cells (ELISA); format: cell-based, human; settings: 1, 10, 100 μM; 24 hours
Description: FIG. 5: C12-Asn-GABA crosses the epithelial barrier without modifying epithelial cells physiology. Caco-2 cells were cultivated into transwell chambers. After treatment with C12-Asn-GABA (800 ng) at the apical side, C12-Asn-GABA was quantified inside the cells and both the apical and basolateral compartments by LC-MS/MS (A); data are represented as mean±SEM, n=3 experiments of 3 wells per condition. Extracted ion chromatogram at the exact mass of GABA (104.0702 m/z) with a mass accuracy of 5 ppm of the GABA commercial standard (GABA (Std.) and apical and basolateral compartments after loading or not Caco-2 cells with 800 ng of GABA at the apical site (B); representation of one well, n=3 experiments of 3 wells per condition. Paracellular permeability assessed by the passage of FITC-dextran loaded at the apical side (C) and CXCL8 secretion assessed by ELISA (D) were monitored after treatment of Caco-2 cells at the apical side with C12-Asn-GABA (10 μM); data are represented as mean±SEM, n=3 experiments of 3 wells per condition. […]
To assess the effect of C12-Asn-GABA on paracellular permeability, transport of dextran 4 kDa FITC across a Caco-2 cell monolayer was investigated. […] In parallel, the release of CXCL8 from Caco-2 cells into the medium, of both apical and basolateral sides of the transwell, was assessed by ELISA. […]

[1] = Colon and blood levels after intracolonic administration (LC-MS/MS); format: in vivo, mouse; settings: intracolonic 10 μM; 30 minutes or 4 hours; vs vehicle
Description: FIG. 6: C12-Asn-GABA inhibits capsaicin-induced visceral hypersensitivity without altering Intestinal contraction. Mice received intracolonic administration of C12-Asn-GABA (10 μM; black symbols) or vehicle (40% ethanol; white symbols) and 30 minutes or 4 hours later colon (A) and blood (B) were harvested in order to quantify C12-Asn-GABA by LC-MS/MS. Data are expressed as mean±SEM, n=8 mice per group. […] Mice received intracolonic administration of C12-Asn-GABA (10 μM; black symbols) or vehicle (40% ethanol; white symbols) and 30 minutes or 4 hours later an intracolonic administration of capsaicin (100 μg/mouse; square) or its vehicle (40% ethanol; circle). Fifteen minutes after capsaicin or vehicle treatment, visceromotor response (VMR) to increasing pressures of colorectal distension was performed. Data are expressed as mean±SEM, n=7-8 mice per group. […] Ex vivo measurement of duodenal mechanical contraction frequency (B) and amplitude (C) in response to Krebs-Ringer solution (control; white bar), to DMSO 0.2% (vehicle; gray bar) or to C12-Asn-GABA (10 μM; black bar). Data are expressed as mean±SEM, n=5-6 per group. […]
(§1) In a first set of experiment, we assessed the ability of the C12-Asn-GABA to cross the epithelial barrier, in vivo. […] The impact of C12-Asn-GABA on visceral hypersensitivity was assessed by measuring the visceromotor responses (VMR) to colorectal distension (CRD). […]

[2] = tested on: capsaicin-induced visceral hypersensitivity; test: Capsaicin-induced visceral hypersensitivity, visceromotor response to colorectal distension; format: in vivo, mouse
Description: FIG. 6: C12-Asn-GABA inhibits capsaicin-induced visceral hypersensitivity without altering Intestinal contraction. Mice received intracolonic administration of C12-Asn-GABA (10 μM; black symbols) or vehicle (40% ethanol; white symbols) and 30 minutes or 4 hours later colon (A) and blood (B) were harvested in order to quantify C12-Asn-GABA by LC-MS/MS. Data are expressed as mean±SEM, n=8 mice per group. […] Mice received intracolonic administration of C12-Asn-GABA (10 μM; black symbols) or vehicle (40% ethanol; white symbols) and 30 minutes or 4 hours later an intracolonic administration of capsaicin (100 μg/mouse; square) or its vehicle (40% ethanol; circle). Fifteen minutes after capsaicin or vehicle treatment, visceromotor response (VMR) to increasing pressures of colorectal distension was performed. Data are expressed as mean±SEM, n=7-8 mice per group. […] Ex vivo measurement of duodenal mechanical contraction frequency (B) and amplitude (C) in response to Krebs-Ringer solution (control; white bar), to DMSO 0.2% (vehicle; gray bar) or to C12-Asn-GABA (10 μM; black bar). Data are expressed as mean±SEM, n=5-6 per group. Statistical analysis was performed using Kruskal-Wallis analysis of variance and subsequent Dunn's post hoc test.
FIG. 8: Trimebutine maleate has no effect on capsaicin-induced visceral hypersensitivity. Mice received an oral treatment with vehicle (PEG200, white circle) or with trimebutine maleate (25 mg/kg, black circle) and 4 hours later an intracolonic administration of capsaicin (100 μg/mouse; black and white circle). Fifteen minutes after capsaicin, visceromotor response (VMR) to increasing pressures of colorectal distension was performed. Data are expressed as mean±SEM, n=7-8 mice per group. […]
as §1

[3] = tested on: DSS-induced visceral hypersensitivity; test: DSS-induced colitis visceral hypersensitivity, visceromotor response to colorectal distension; format: in vivo, mouse; settings: DSS 3% 5 days; 100 μL intracolonic 10 μM at day 5; CRD 15-60 mm Hg
Description: FIG. 9: C12-Asn-GABA Inhibits DSS-induced visceral hypersensitivity. Mice received DSS 3% in their drinking water for 5 days to induce colitis. At day 5, mice were intracolonically administrated with C12-Asn-GABA (10 μM; black circles) or vehicle (40% ethanol; white circles). Thirty minutes after intracolonic administration, visceromotor response (VMR) to increasing pressures of colorectal distension was performed. Data are expressed as mean±SEM, n=5 mice per group.
The analgesic properties of the C12-Asn-GABA was assessed in a mouse colitis model. Dextran sulfate sodium (DSS) at 3% during 5 days was added in the drinking water in order to induce colitis.

CCCCCCCCCCCC(=O)NC(CC(N)=O)C(=O)NCCCC(=O)O (stereo not drawn) [C12-Asn-GABA, C11 C(O)-Asn-gamma-aminobutyric acid]
secretion of CXCL8 (apical and basolateral) (Caco-2 cells): None of the tested doses (1, 10, 100 μM) and neither the vehicle modified the secretion of CXCL8
concentration in the blood [1]: increased the concentration
concentration in the colonic tissue [1]: increased the concentration
capsaicin-evoked increase in VMR to CRD ([2]; 100 μL intracolonic 10 μM pretreatment, capsaicin 100 μg/animal, CRD 15-60 mm Hg): significantly prevented for all distension pressures
visceral sensitivity in response to CRD in the absence of capsaicin ([2]; intracolonic 10 μM, no capsaicin): did not modify visceral sensitivity
DSS-induced increase in VMR to CRD [3]: significantly decreased for all distension pressures
